Entries after “also recorded” stand apart in the source; their conditions may differ.
How the values were obtained:
[1] = system: NF-κB in U87 glioma cells; test: NF-κB-responsive luciferase reporter assay, U87; type: cell-based, human
Description: U87 cells (5×10^3) were plated overnight and subsequently co-transfected with Ig-κB-Luc (or pE425 GL3) and the Renilla reniformis expression vector, pRL-TK, to normalize transfection efficiency, at a ratio of 10:1 using SuperFectin transfection kit (Qiagen, Valencia, Calif., USA). Twenty-four hours after transfection, the cells were pretreated with TMZ (100 μM) for 16 h, then treated with TNFα (10 ng/mL). Five hours later NF-κB (or Egr-1) and Renilla luciferase activity were measured with the Dual-Luciferase reporter assay system (Promega Corp., Madison, Wis., USA). Relative luciferase was calculated as the ratio of firefly luminescence/Renilla luminescence for each sample.

U87 hindlimb xenografts [2] = test: Hindlimb glioma xenograft tumor growth; type: in vivo, nude mice; conditions: 30 days following treatment, second hindlimb study
Description: Hindlimb Studies: U87 hindlimb xenografts were established as described above in Example 4. In one study, mice were randomized into four groups as described in Example 4 and treatment initiated (day 0). Ad.Egr-TNF (2×10^8 pu) was injected IT twice a week for 4 total injections, and 5 mg/kg TMZ was given IP 3 h after each vector injection for a total of 20 mg/kg. The dose of TMZ used was approximately 0.2 LD10 and was chosen to have modest anti-tumor effect but to not be curative based on previous studies (Friedman, H. S. et al. (1995) Cancer Res 55(13):2853-2857) and data from our lab showing LD50 for IP TMZ to be approximately 500 mg/kg. Tumor volume was measured every 2-3 days. Fractional tumor volume (V/V0 where V0=volume on day 0) was calculated and plotted.
In a second study, tumor-bearing mice were randomized into eight treatment groups: untreated control (UTC); intratumoral (IT) Ad.Egr-TNF alone; intraperitoneal (IP) TMZ alone; IR alone; Ad.Egr-TNF and TMZ; Ad.Egr-TNF and IR; TMZ and IR; and Ad.Egr-TNF, TMZ and IR. Ad.Egr-TNF was administered IT at a dose of 2×10^8 pu/10 μL twice a week for 2 weeks, IP TMZ was given 3 h after vector at 5 mg/kg to a total of 20 mg/kg. […] Xenografts were measured twice a week using calipers, tumor volume was calculated, and fractional tumor volumes (V/V0 where V0=volume on day 0) were plotted.

[3] = system: NF-κB in BxPC-3 pancreatic cancer cells; test: NF-κB-responsive luciferase reporter assay, BxPC-3; type: cell-based, human
[4] = system: U87 cells infected with Ad.Egr-TNF; test: TNFα induction in vitro (Quantikine ELISA of conditioned media); type: cell-based, human
Description: 10^6 U87 cells were plated and incubated overnight. The cells were then infected with Ad.Egr-TNF at a multiplicity of infection (MOI) of 100 for 3 h at 37° C. After incubation, 3.8 mL of complete media with or without TMZ was added. Conditioned media were harvested at 48 h after treatment and human TNFα production was quantified using a Quantikine ELISA kit (R&D System Inc., Minneapolis, Minn.).

[5] = system: NF-κB in MIAPaCa-2 pancreatic cancer cells; test: NF-κB-responsive luciferase reporter assay, MIAPaCa-2; type: cell-based, human
[6] = system: NF-κB in Panel pancreatic cancer cells; test: NF-κB-responsive luciferase reporter assay, Panel; type: cell-based, human
U87 hindlimb xenografts [7] = test: TNFα induction in vivo in hindlimb xenografts; parameters: species or system nude mice
Description: U87 cells (5×10^6) in […] were injected subcutaneously (sc) into the right hindlimb of nude mice. When tumors reached an average size of 200 mm^3 (length×width×thickness/2), the tumor-bearing mice were randomized into 4 groups: 1. Untreated Control (UTC); 2. Ad.Egr-TNF alone; 3. TMZ alone; 4. Ad.Egr-TNF and TMZ. Ad.Egr-TNF was injected intratumorally (IT) at a dose of 2×10^8 particle units (pu) each day. Two doses of TMZ were given: 2.5 mg/kg/day and 5 mg/kg/day by intraperitoneal (IP) injection 3 h after vector. Four consecutive daily IT and IP injections were given, control animals received IT and IP serum free medium (SFM). Animals were euthanized on day 2 and 4 (i.e., 48 h and 96 h after treatment initiation), tumors harvested, snap-frozen in liquid nitrogen and homogenized in RIPA buffer (150 mM NaCl, 10 mM Tris at pH 7.5, 5 mM EDTA at pH 7.5, […], 1 μg/mL leupeptin, and 2 μg/mL aprotinin). Protein was isolated and concentration measured using Protein Assay reagent (Bio-Rad Laboratories, Hercules, Calif.). TNFα levels in the supernatants were measured as described above.

p65 = test: TNFα-induced p65 phosphorylation (Western blot); type: cell-based, human
Description: 20 μg of whole U87 cell (or nuclear) lysate was subjected to sodium dodecyl sulfate (SDS)-polyacrylamide gel electrophoresis (PAGE). Following electro-transfer, Immobilon-P membranes (Millipore Corp. Burlington, Mass., USA.) were probed with primary polyclonal antibody against IκBα, phospho-Ser32-IκBα, SAPK/JNK, phospho-Thr183/Tyr185-SAPK/JNK, p65, phospho-Ser536-p65 (Cell Signaling Technology Inc. Beverly, […]., USA) diluted 1:1000 overnight at 4° C. Anti-rabbit IgG HRP-linked secondary antibody (Cell Signaling Technology) was diluted 1:1000 in blocking buffer and applied for 1 h at room temperature. Immunoreactive bands were detected by SuperSignal enhanced chemiluminescence (ECL) (Pierce, Rockford, Ill., USA) and exposed to Kodak X-Omat film.

[8] = system: NF-κB in Seg-1 esophageal cancer cells; test: NF-κB-responsive luciferase reporter assay, Seg-1; type: cell-based, human

## Cn1nnc2c(C(N)=O)ncn2c1=O [TMZ, temozolomide]
[1]; U87, TMZ pre-treatment
  TNFα-induced NF-κB transcriptional activity: dose dependent inhibition; also recorded: completely inhibited
[1]; glioma cells, no TNFα
  transcriptional activity of NF-κB, TMZ used alone: slightly increases
U87 hindlimb xenografts [2]
  animals with complete disappearance of palpable tumor: 1/10
[3]
  TNFα-induced NF-κB transcriptional activity: activated
[4]
  TNFα detection in vitro: TNFα was detected
[4]; U87 cells infected with Ad.Egr-TNF (MOI 100), 100 μM TMZ, 48 h
  increase in TNFα expression compared to cells infected with vector alone: 2.3 fold
[5]
  TNFα-induced NF-κB transcriptional activity: activated
[6]
  TNFα-induced NF-κB transcriptional activity: activated
U87 hindlimb xenografts [7]
  TNF detection in vivo: No TNF was detected
p65
  TNFα-induced p65 phosphorylation: inhibits
[8]
  TNFα-induced NF-κB transcriptional activity: activated

Reference: patent publication US20110091375A1, “USE OF THE COMBINATION COMPRISING TEMOZOLOMIDE AND TNF-ALPHA FOR TREATING GLIOBLASTOMA” (THE UNIVERSITY OF CHICAGO, priority 2004, published 2011)
